Measured values as given in patent publication US20230278972A1, “SUBSTITUTED HALOALKYL SULFONANILIDE HERBICIDES” (FMC Corporation, priority 2020, published 2023).

How the values were obtained:
Type in all cases: in vivo
soybean (Glycine max) [1] = experiment: Test A1 preemergence, soybean
In short: (§1)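 Pre: seeds in loam/sand blend, directed soil spray. Post: potted plants, same soil, 2–10 cm, 1–2 leaf stage. Chemicals in non-phytotoxic solvent + surfactant for both.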

[2] = test system: Ryegrass, Italian (Italian ryegrass, Lolium multiflorum); experiment: Test A1 postemergence, Ryegrass, Italian; conditions: for Plant response rating, Ryegrass, Italian: Postemergence
In short: (§2)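 Plants were grown in a loam soil/sand blend, with test chemicals formulated in a non-phytotoxic solvent mixture containing surfactant. Preemergence treatment (corn) was a directed soil spray at planting. Postemergence treatment was applied to plants 2 to 10 cm tall at the one- to two-leaf stage.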

[3] = test system: blackgrass (Alopecurus myosuroides); experiment: Test A1 preemergence, blackgrass
In short: as §1

[4] = test system: blackgrass (Alopecurus myosuroides); experiment: Test A1 postemergence, blackgrass; conditions: 0 to 100 scale (0 no effect, 100 complete control); for Plant response rating, Blackgrass: Postemergence
In short: as §2

[5] = test system: Oat, Wild (wild oat, Avena fatua); experiment: Test A1 preemergence, Oat, Wild
In short: as §1

[6] = test system: goosegrass (Eleusine indica); experiment: Test A1 postemergence, goosegrass; conditions: for Plant response rating, Goosegrass: Postemergence
In short: as §2

[7] = test system: galium (catchweed bedstraw, Galium aparine); experiment: Test A1 postemergence, galium; conditions: for Plant response rating, Galium: Postemergence
In short: as §2

rice (Oryza sativa) = experiment: Test B1 flooded paddy test, rice; conditions: 250 g ai/ha, Flood, applied to paddy water, 2-leaf stage, visually evaluated after 10 to 14 days
Excerpt: (§3) A dash (-) response means no test result.

[8] = test system: Pigweed, Palmer (palmer amaranth, palmer pigweed, Amaranthus palmeri); experiment: Test A1 preemergence, Pigweed, Palmer
In short: as §1

[9] = test system: Oat, Wild (wild oat, Avena fatua); experiment: Test A1 postemergence, Oat, Wild; conditions: for Plant response rating, Oat, Wild: Postemergence
In short: as §1

[10] = test system: horseweed (Erigeron canadensis); experiment: Test A1 postemergence, horseweed; conditions: for Plant response rating, Horseweed: Postemergence
In short: as §2

[11] = test system: goosegrass (Eleusine indica); experiment: Test A1 preemergence, goosegrass
In short: as §1

[12] = test system: wheat (Triticum aestivum); experiment: Test A1 postemergence, wheat; conditions: for Plant response rating, Wheat: Postemergence
In short: as §2

[13] = test system: barnyardgrass (Echinochloa crus-galli); experiment: Test B1 flooded paddy test, barnyardgrass; conditions: 250 g ai/ha, Flood, applied to paddy water, 2-leaf stage, visually evaluated after 10 to 14 days
Excerpt: as §3

corn (Zea mays) [14] = experiment: Test A1 preemergence, corn
In short: as §1

[15] = test system: ragweed (common ragweed, Ambrosia artemisiifolia); experiment: Test A1 postemergence, ragweed; conditions: for Plant response rating, Ragweed: Postemergence
In short: as §1

soybean (Glycine max) [16] = experiment: Test A1 postemergence, soybean; conditions: for Plant response rating, Soybean: Postemergence
In short: as §2

[17] = test system: Foxtail, Giant (giant foxtail, Setaria faberi); experiment: Test A1 postemergence, Foxtail, Giant; conditions: for Plant response rating, Foxtail, Giant: Postemergence
In short: as §2

[18] = test system: Foxtail, Giant (giant foxtail, Setaria faberi); experiment: Test A1 preemergence, Foxtail, Giant
In short: as §1

kochia (Bassia scoparia) [19] = experiment: Test A1 postemergence, kochia; conditions: for Plant response rating, Kochia: Postemergence
In short: as §2

[20] = test system: wheat (Triticum aestivum); experiment: Test A1 preemergence, wheat
In short: as §1

[21] = test system: ducksalad (Heteranthera limosa); experiment: Test B1 flooded paddy test, ducksalad; conditions: 250 g ai/ha, Flood, applied to paddy water, 2-leaf stage, visually evaluated after 10 to 14 days
Excerpt: as §3

kochia (Bassia scoparia) [22] = experiment: Test A1 preemergence, kochia
In short: as §1

corn (Zea mays) [23] = experiment: Test A1 postemergence, corn; conditions: for Plant response rating, Corn: Postemergence
In short: as §1

[24] = test system: ragweed (common ragweed, Ambrosia artemisiifolia); experiment: Test A1 preemergence, ragweed
In short: as §1

[25] = test system: Ryegrass, Italian (Italian ryegrass, Lolium multiflorum); experiment: Test A1 preemergence, Ryegrass, Italian
In short: as §1

[26] = test system: Pigweed, Palmer (palmer amaranth, palmer pigweed, Amaranthus palmeri); experiment: Test A1 postemergence, Pigweed, Palmer; conditions: for Plant response rating, Pigweed, Palmer: Postemergence
In short: as §1

[27] = 31 g ai/ha, 0 to 100 scale (0 no effect, 100 complete control)
[28] = 125 g ai/ha, 0 to 100 scale, 0 no effect, 100 complete control
[29] = 31 g ai/ha, 0 to 100 scale (0 no effect, 100 complete control), 10 days
[30] = 31 g ai/ha, postemergence, 0 to 100 scale (0 no effect, 100 complete control)
[31] = 125 g ai/ha, 0 to 100 scale (0 no effect, 100 complete control), 10 days

## Cc1cc(C)c(N(COC(=O)OC(C)(C)C)S(=O)(=O)C(F)(F)F)cc1C1=NOC2CCCC12 (stereo not drawn) [Compound 316]
Soybean (Glycine max) [1]; [27]
  Plant response rating, Soybean: 0
Soybean (Glycine max) [1]; [28]
  Plant response rating, Soybean: 0
[2]; [29]
  Plant response rating, Ryegrass, Italian: 0
[2]; 125 g ai/ha, 0 to 100 scale
  Plant response rating, Ryegrass, Italian: 30
[3]; [27]
  Plant response rating, Blackgrass: 0
[3]; [28]
  Plant response rating, Blackgrass: 0
[4]; 31 g ai/ha, 10 days
  Plant response rating, Blackgrass: 0
[4]; 125 g ai/ha
  Plant response rating, Blackgrass: 0
[5]; [27]
  Plant response rating, Oat, Wild: 0
[5]; [28]
  Plant response rating, Oat, Wild: 0
[6]; [29]
  Plant response rating, Goosegrass: 0
[6]; 125 g ai/ha, 0 to 100 scale
  Plant response rating, Goosegrass: 90
[7]; [29]
  Plant response rating, Galium: 40
[7]; 125 g ai/ha, 0 to 100 scale
  Plant response rating, Galium: 50
Rice (Oryza sativa)
  Plant response rating, Rice (0 to 100 scale, 0 is no effect, 100 is complete control): 0
[8]; [27]
  Plant response rating, Pigweed, Palmer: 40
[8]; [28]
  Plant response rating, Pigweed, Palmer: 50
[9]; [29]
  Plant response rating, Oat, Wild: 0
[9]; 125 g ai/ha, 0 to 100 scale
  Plant response rating, Oat, Wild: 10
[10]; [29]
  Plant response rating, Horseweed: 30
[10]; 125 g ai/ha, 0 to 100 scale
  Plant response rating, Horseweed: 40
[11]; [27]
  Plant response rating, Goosegrass: 40
[11]; [28]
  Plant response rating, Goosegrass: 90
[12]; [29]
  Plant response rating, Wheat: 10
[12]; 125 g ai/ha, 0 to 100 scale
  Plant response rating, Wheat: 40
[13]
  Plant response rating, Barnyardgrass (0 to 100 scale, 0 is no effect, 100 is complete control): 95
Corn (Zea mays) [14]; [27]
  Plant response rating, Corn: 0
Corn (Zea mays) [14]; [28]
  Plant response rating, Corn: 0
[15]; [29]
  Plant response rating, Ragweed: 0
[15]; 125 g ai/ha, 0 to 100 scale
  Plant response rating, Ragweed: 50
Soybean (Glycine max) [16]; [29]
  Plant response rating, Soybean: 10
Soybean (Glycine max) [16]; 125 g ai/ha, 0 to 100 scale
  Plant response rating, Soybean: 50
[17]; [29]
  Plant response rating, Foxtail, Giant: 0
[17]; 125 g ai/ha, 0 to 100 scale
  Plant response rating, Foxtail, Giant: 0
[18]; [27]
  Plant response rating, Foxtail, Giant: 0
[18]; [28]
  Plant response rating, Foxtail, Giant: 30
Kochia (Bassia scoparia) [19]; [29]
  Plant response rating, Kochia: 30
Kochia (Bassia scoparia) [19]; 125 g ai/ha, 0 to 100 scale
  Plant response rating, Kochia: 70
[20]; [27]
  Plant response rating, Wheat: 0
[20]; [28]
  Plant response rating, Wheat: 0
[21]
  Plant response rating, Ducksalad (0 to 100 scale, 0 is no effect, 100 is complete control): 90
Kochia (Bassia scoparia) [22]; [27]
  Plant response rating, Kochia: 0
Kochia (Bassia scoparia) [22]; [28]
  Plant response rating, Kochia: 50
Corn (Zea mays) [23]; [29]
  Plant response rating, Corn: 0
Corn (Zea mays) [23]; 125 g ai/ha, 0 to 100 scale
  Plant response rating, Corn: 0
[24]; [27]
  Plant response rating, Ragweed: 0
[24]; [28]
  Plant response rating, Ragweed: 20
[25]; [27]
  Plant response rating, Ryegrass, Italian: 30
[25]; [28]
  Plant response rating, Ryegrass, Italian: 50
[26]; [29]
  Plant response rating, Pigweed, Palmer: 30
[26]; 125 g ai/ha, 0 to 100 scale
  Plant response rating, Pigweed, Palmer: 70

## Cc1cc(C)c(N2CCC3(CCC(C(F)(F)F)CC3)C2=O)cc1NS(=O)(=O)C(F)(F)F (stereo not drawn) [Compound 400]
Soybean (Glycine max) [1]; [27]
  Plant response rating, Soybean: 50
Soybean (Glycine max) [1]; [28]
  Plant response rating, Soybean: 50
[2]; [30]
  Ryegrass, Italian plant response rating: 0
[2]; [31]
  Plant response rating, Ryegrass, Italian: 0
[3]; [27]
  Plant response rating, Blackgrass: 20
[3]; [28]
  Plant response rating, Blackgrass: 80
[4]; 31 g ai/ha, postemergence
  Blackgrass plant response rating: 0
[4]; 125 g ai/ha, 10 days
  Plant response rating, Blackgrass: 30
[5]; [27]
  Plant response rating, Oat, Wild: 50
[5]; [28]
  Plant response rating, Oat, Wild: 90
[6]; [30]
  Goosegrass plant response rating: 10
[6]; [31]
  Plant response rating, Goosegrass: 80
[7]; [30]
  Galium plant response rating: 80
[7]; [31]
  Plant response rating, Galium: 100
Rice (Oryza sativa)
  Plant response rating, Rice (0 to 100 scale, 0 is no effect, 100 is complete control): 25
[8]; [27]
  Plant response rating, Pigweed, Palmer: 50
[8]; [28]
  Plant response rating, Pigweed, Palmer: 100
[9]; [30]
  Oat, Wild plant response rating: 0
[9]; [31]
  Plant response rating, Oat, Wild: 0
[10]; [30]
  Horseweed plant response rating: 30
[10]; [31]
  Plant response rating, Horseweed: 80
[11]; [27]
  Plant response rating, Goosegrass: 90
[11]; [28]
  Plant response rating, Goosegrass: 100
[12]; [30]
  Wheat plant response rating: 30
[12]; [31]
  Plant response rating, Wheat: 30
[13]
  Plant response rating, Barnyardgrass (0 to 100 scale, 0 is no effect, 100 is complete control): 20
Corn (Zea mays) [14]; [27]
  Plant response rating, Corn: 0
Corn (Zea mays) [14]; [28]
  Plant response rating, Corn: 20
[15]; [30]
  Ragweed plant response rating: 30
[15]; [31]
  Plant response rating, Ragweed: 80
Soybean (Glycine max) [16]; [30]
  Soybean plant response rating: 50
Soybean (Glycine max) [16]; [31]
  Plant response rating, Soybean: 60
[17]; [30]
  Foxtail, Giant plant response rating: 0
[17]; [31]
  Plant response rating, Foxtail, Giant: 0
[18]; [27]
  Plant response rating, Foxtail, Giant: 20
[18]; [28]
  Plant response rating, Foxtail, Giant: 90
Kochia (Bassia scoparia) [19]; [30]
  Kochia plant response rating: 20
Kochia (Bassia scoparia) [19]; [31]
  Plant response rating, Kochia: 70
[20]; [27]
  Plant response rating, Wheat: 10
[20]; [28]
  Plant response rating, Wheat: 80
[21]
  Plant response rating, Ducksalad (0 to 100 scale, 0 is no effect, 100 is complete control): 55
Kochia (Bassia scoparia) [22]; [27]
  Plant response rating, Kochia: 0
Kochia (Bassia scoparia) [22]; [28]
  Plant response rating, Kochia: 20
Corn (Zea mays) [23]; [30]
  Corn plant response rating: 0
Corn (Zea mays) [23]; [31]
  Plant response rating, Corn: 0
[24]; [27]
  Plant response rating, Ragweed: 70
[24]; [28]
  Plant response rating, Ragweed: 90
[25]; [27]
  Plant response rating, Ryegrass, Italian: 60
[25]; [28]
  Plant response rating, Ryegrass, Italian: 90
[26]; [30]
  Pigweed, Palmer plant response rating: 20
[26]; [31]
  Plant response rating, Pigweed, Palmer: 70
